These results are taken from US20250282810A1, “Chemical Synthesis Method and Application of V. Cholerae Serotype O100 O-Antigen Oligosaccharides” (priority 2024, published 2025).

The assay has as its system rabbit serum IgG antibodies. As to the kind of experiment: Glycan microarray screening of synthetic oligosaccharides with rabbit serum. It is filed as binding. Conditions: oligosaccharides printed at 0.1 mM and 0.5 mM, LPS at 1 mg/mL and 5 mg/mL, rabbit serum 1:200, cy3 goat anti-rabbit IgG 1:400. How it is done: . Then, a microarray spotter was used for printing distribution grids shown in FIG. 9B onto the area of a microarray (9 mm long*9 mm wide), and incubation was performed overnight at room temperature and 65% humidity to covalently bind oligosaccharide fragments to the microarray. After incubation, a mixed solution (pH=9) of […] ethanolamine and […] sodium phosphate was used for processing at 50° C. for 1 h, and then, ultrapure water was used for washing.
The glycan microarray was blocked with a PBS solution containing 3% BSA at room temperature for 1 h. The glycan microarray was washed once with a PBS solution containing 0.1% Tween 20 (PBST solution), washed twice with a PBS solution, and spin-dried, and the glycan microarray was loaded into a 16-well incubator (ProPlate). 120 microliters of rabbit serum sample diluted in a ratio of 1:200 in a PBS solution containing 1% BSA was added to each well, and incubated overnight in a moist chamber at 4° C. in the dark to allow rabbit serum IgG antibodies identifying the synthetic oligosaccharide fragments to bind to the synthetic oligosaccharides on the glycan microarray, and the sample was removed and washed three times with 200 microliters of PBST solution to remove unbound serum IgG antibodies. […]

As for D-FucNAc [synthetic sugar 6*], the “binding ability to IgG antibodies (fluorescence signals)” value is “did not bind to antibodies”.
